Assay results published in publication PMC9851200, “Multiparameter phenotypic screening for endogenous TFEB and TFE3 translocation identifies novel chemical series modulating lysosome function” (Autophagy, 2022).

Columns and labels:
Assay type in all cases: binding
[1] = molecular target: T1, kinases (KINOMEscan panel) (Homo sapiens, UniProt Q9UBE8); conditions: NLK; NEW KINOMEscan
T1 sequence (Q9UBE8 1-527): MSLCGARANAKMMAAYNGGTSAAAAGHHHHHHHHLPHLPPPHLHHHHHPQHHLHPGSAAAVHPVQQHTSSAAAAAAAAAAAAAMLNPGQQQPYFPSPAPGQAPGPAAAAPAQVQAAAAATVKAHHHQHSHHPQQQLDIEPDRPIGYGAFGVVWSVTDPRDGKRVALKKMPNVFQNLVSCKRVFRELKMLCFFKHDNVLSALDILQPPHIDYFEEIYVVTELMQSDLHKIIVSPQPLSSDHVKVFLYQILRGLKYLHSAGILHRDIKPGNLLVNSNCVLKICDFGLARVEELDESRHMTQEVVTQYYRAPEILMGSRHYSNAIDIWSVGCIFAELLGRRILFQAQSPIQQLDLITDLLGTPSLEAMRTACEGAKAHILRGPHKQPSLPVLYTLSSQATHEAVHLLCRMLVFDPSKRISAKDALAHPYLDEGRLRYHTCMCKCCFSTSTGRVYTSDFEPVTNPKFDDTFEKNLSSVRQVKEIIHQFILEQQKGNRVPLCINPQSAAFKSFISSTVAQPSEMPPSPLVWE

[2] = molecular target: kinases (KINOMEscan panel) (Homo sapiens, UniProt Q9Y6M4); conditions: CSNK1G3; NEW KINOMEscan
[3] = molecular target: kinases (KINOMEscan panel) (Homo sapiens, UniProt P21127); conditions: CDK11B; NEW KINOMEscan
[4] = molecular target: kinases (KINOMEscan panel) (Homo sapiens, UniProt P42336, M1043I); conditions: NEW KINOMEscan
[5] = molecular target: T2, kinases (KINOMEscan panel) (Homo sapiens, UniProt Q14164)
T2 sequence (Q14164 1-716): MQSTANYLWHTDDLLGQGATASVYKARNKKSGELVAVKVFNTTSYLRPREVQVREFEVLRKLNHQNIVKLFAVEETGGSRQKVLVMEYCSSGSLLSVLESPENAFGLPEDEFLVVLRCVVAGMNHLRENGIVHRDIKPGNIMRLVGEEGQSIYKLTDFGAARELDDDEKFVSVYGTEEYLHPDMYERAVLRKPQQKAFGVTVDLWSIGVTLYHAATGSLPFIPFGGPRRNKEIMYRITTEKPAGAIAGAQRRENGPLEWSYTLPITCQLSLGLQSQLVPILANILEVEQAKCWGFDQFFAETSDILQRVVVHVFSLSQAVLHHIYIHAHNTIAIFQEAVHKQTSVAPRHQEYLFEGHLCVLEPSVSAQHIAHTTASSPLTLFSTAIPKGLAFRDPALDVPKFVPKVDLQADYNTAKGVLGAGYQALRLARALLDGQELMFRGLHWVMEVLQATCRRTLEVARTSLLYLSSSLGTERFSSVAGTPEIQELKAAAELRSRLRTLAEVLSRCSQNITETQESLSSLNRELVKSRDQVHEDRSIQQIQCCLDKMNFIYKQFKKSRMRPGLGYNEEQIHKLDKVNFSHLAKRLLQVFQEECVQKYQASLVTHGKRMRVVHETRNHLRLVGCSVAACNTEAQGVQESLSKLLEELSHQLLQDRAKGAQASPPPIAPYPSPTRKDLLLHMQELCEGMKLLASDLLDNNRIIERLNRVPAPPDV

[6] = molecular target: kinases (KINOMEscan panel) (Homo sapiens, UniProt O15264)
[7] = molecular target: kinases (KINOMEscan panel) (Homo sapiens, UniProt P53350); conditions: PLK1; NEW KINOMEscan
[8] = molecular target: kinases (KINOMEscan panel) (Homo sapiens, UniProt P22694); conditions: PRKACB; NEW KINOMEscan
[9] = molecular target: kinases (KINOMEscan panel) (Homo sapiens, UniProt Q04912); conditions: MST1R; NEW KINOMEscan
[10] = molecular target: kinases (KINOMEscan panel) (Homo sapiens, UniProt Q96SB4); conditions: kinase SRPK1; NEW KINOMEscan
[11] = molecular target: kinases (KINOMEscan panel) (Homo sapiens, UniProt P78368); conditions: kinase CSNK1G2; NEW KINOMEscan
[12] = molecular target: T3, kinases (KINOMEscan panel) (Homo sapiens, UniProt O00444); conditions: kinase PLK4; NEW KINOMEscan
T3 sequence (O00444 1-970): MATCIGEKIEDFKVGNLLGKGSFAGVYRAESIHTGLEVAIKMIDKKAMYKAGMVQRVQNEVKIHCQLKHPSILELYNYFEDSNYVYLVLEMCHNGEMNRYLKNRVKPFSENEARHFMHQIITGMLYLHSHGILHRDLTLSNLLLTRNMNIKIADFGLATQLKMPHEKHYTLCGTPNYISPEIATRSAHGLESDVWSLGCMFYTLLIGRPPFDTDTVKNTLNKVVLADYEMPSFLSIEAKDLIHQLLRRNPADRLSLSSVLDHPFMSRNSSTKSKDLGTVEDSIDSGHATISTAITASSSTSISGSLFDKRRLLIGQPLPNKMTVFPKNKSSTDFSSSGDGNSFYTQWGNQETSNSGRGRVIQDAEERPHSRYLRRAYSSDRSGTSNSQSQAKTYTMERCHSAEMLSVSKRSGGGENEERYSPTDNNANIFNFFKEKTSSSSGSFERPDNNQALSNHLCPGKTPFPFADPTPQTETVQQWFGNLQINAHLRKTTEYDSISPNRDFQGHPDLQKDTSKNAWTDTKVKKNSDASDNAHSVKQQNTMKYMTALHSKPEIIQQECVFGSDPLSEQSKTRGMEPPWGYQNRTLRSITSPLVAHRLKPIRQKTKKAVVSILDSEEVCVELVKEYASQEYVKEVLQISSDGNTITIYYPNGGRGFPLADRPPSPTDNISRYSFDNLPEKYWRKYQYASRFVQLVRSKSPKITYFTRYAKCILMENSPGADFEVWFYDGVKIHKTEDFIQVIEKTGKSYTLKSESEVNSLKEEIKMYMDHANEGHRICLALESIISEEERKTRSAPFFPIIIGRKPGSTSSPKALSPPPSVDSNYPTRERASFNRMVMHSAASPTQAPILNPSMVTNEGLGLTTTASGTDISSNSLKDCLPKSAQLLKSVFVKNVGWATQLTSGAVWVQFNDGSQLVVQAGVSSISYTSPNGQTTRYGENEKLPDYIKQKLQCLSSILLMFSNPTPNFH

Chain of kinases (KINOMEscan panel) (Homo sapiens, UniProt P53350) (P53350 whole entry): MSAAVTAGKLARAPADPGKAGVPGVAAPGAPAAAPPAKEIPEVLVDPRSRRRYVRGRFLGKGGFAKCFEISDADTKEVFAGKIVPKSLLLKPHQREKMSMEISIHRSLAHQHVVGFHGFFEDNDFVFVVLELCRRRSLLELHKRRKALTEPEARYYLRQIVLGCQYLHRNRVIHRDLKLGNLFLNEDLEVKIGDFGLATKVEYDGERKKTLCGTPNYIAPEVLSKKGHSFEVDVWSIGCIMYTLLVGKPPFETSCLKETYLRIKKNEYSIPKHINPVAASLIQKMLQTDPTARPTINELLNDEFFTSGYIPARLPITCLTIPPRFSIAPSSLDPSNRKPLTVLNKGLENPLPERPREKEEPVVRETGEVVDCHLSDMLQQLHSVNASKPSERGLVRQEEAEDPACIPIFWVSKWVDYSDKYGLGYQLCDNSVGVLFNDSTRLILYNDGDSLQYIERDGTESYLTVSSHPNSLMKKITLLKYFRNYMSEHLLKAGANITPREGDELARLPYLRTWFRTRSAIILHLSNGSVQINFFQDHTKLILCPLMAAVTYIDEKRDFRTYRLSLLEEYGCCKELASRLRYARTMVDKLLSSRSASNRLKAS
Chain of kinases (KINOMEscan panel) (Homo sapiens, UniProt Q96SB4) (Q96SB4 whole entry): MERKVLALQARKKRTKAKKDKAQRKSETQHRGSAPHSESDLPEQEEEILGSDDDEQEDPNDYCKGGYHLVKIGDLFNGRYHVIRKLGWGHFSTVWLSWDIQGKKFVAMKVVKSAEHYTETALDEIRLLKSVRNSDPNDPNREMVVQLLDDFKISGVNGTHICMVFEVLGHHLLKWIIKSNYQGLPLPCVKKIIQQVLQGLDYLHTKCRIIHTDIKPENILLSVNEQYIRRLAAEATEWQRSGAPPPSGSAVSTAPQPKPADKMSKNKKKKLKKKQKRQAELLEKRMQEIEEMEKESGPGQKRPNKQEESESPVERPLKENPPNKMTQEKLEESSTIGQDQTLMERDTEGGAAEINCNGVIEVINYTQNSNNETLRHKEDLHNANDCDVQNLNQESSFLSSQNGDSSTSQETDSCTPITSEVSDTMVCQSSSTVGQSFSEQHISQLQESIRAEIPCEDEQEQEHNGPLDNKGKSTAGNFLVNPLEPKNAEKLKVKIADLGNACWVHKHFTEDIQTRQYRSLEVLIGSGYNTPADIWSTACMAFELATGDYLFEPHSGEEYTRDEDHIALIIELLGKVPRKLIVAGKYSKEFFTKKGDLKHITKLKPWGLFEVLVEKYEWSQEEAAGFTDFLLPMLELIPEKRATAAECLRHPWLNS
Chain of kinases (KINOMEscan panel) (Homo sapiens, UniProt Q04912) (Q04912 25-1400): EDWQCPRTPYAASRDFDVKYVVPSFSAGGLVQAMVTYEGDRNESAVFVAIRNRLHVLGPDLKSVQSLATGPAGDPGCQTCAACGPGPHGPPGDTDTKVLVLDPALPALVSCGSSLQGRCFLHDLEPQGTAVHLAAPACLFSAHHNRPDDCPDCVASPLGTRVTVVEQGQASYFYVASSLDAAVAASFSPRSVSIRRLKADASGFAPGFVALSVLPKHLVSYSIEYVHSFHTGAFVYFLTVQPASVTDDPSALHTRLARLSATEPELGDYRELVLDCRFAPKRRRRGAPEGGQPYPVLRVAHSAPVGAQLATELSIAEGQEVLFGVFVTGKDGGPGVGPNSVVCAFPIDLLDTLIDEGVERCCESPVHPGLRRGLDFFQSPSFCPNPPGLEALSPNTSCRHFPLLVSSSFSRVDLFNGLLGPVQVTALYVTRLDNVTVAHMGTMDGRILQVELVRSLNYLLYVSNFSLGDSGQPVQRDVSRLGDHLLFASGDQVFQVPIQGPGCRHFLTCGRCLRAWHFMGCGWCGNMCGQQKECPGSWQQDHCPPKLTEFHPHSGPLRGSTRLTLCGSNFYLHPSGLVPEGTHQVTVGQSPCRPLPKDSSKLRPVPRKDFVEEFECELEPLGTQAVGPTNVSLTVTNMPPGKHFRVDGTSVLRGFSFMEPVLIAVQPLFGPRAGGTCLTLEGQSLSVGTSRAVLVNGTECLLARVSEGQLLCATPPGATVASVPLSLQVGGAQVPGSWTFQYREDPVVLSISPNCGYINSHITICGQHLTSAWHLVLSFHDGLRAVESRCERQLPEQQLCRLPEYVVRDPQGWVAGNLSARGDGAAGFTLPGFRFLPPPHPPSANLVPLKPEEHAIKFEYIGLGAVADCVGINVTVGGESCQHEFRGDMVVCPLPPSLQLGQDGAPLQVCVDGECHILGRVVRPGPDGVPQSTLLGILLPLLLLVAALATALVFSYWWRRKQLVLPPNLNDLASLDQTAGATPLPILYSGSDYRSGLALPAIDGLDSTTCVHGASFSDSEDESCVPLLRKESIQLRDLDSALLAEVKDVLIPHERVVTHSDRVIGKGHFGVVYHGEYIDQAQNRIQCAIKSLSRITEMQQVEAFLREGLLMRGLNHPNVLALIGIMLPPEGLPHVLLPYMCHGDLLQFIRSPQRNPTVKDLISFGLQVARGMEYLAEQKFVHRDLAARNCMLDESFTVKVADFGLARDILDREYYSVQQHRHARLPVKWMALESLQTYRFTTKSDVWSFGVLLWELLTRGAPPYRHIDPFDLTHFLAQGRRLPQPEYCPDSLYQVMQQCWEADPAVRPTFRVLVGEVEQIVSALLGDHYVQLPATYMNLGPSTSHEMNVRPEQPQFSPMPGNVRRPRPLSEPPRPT
Chain of kinases (KINOMEscan panel) (Homo sapiens, UniProt Q9Y6M4) (Q9Y6M4 whole entry): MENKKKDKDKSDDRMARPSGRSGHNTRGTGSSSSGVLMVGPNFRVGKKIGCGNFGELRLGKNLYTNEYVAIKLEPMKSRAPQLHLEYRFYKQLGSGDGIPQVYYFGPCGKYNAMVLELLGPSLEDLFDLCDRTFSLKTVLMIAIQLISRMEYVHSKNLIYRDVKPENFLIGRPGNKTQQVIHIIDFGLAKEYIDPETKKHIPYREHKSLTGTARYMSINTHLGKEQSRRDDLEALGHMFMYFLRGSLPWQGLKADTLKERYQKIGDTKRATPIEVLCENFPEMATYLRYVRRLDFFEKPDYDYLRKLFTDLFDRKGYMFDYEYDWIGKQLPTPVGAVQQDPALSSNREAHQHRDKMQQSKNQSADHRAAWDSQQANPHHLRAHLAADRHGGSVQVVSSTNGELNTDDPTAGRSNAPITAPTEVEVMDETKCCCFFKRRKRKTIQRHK
Chain of kinases (KINOMEscan panel) (Homo sapiens, UniProt P42336, M1043I) (P42336 whole entry M1043I): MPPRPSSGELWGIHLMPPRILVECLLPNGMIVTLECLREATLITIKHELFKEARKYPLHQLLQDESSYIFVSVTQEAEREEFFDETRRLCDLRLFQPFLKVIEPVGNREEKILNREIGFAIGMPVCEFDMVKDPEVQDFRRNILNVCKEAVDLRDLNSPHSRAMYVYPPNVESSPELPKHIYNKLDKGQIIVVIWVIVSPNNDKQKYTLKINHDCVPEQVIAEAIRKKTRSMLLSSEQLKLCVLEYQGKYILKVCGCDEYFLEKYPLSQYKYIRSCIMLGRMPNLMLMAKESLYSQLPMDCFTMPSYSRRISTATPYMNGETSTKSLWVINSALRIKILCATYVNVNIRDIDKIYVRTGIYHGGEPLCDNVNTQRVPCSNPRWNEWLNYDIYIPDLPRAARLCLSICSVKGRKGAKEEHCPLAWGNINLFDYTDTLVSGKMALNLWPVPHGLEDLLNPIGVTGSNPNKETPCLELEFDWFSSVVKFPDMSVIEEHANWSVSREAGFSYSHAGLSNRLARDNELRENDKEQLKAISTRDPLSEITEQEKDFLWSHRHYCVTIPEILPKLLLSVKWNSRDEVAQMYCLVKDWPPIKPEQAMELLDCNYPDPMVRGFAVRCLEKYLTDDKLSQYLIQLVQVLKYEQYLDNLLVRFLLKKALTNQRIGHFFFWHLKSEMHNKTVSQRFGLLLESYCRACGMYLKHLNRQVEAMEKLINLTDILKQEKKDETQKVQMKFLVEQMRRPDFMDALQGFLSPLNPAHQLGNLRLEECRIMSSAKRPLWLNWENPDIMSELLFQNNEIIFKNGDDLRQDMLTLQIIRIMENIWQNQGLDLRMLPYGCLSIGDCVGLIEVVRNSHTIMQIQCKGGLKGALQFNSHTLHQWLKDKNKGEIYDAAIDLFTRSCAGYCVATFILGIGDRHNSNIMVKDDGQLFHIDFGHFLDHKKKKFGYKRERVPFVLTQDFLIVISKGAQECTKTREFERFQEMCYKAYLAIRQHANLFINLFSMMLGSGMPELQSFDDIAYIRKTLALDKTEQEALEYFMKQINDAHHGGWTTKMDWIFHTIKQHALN
Chain of kinases (KINOMEscan panel) (Homo sapiens, UniProt P78368) (P78368 whole entry): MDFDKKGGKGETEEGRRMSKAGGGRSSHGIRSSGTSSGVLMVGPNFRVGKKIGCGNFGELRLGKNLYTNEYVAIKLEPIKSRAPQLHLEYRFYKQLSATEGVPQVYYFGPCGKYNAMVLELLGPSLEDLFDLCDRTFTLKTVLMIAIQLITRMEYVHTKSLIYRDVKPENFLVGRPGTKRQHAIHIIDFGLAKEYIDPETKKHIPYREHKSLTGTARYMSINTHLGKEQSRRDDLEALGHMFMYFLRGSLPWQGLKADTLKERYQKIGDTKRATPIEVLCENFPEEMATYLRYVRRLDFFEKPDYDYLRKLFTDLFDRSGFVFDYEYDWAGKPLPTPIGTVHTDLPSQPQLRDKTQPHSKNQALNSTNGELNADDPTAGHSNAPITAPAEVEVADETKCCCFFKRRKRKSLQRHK
Chain of kinases (KINOMEscan panel) (Homo sapiens, UniProt O15264) (O15264 whole entry): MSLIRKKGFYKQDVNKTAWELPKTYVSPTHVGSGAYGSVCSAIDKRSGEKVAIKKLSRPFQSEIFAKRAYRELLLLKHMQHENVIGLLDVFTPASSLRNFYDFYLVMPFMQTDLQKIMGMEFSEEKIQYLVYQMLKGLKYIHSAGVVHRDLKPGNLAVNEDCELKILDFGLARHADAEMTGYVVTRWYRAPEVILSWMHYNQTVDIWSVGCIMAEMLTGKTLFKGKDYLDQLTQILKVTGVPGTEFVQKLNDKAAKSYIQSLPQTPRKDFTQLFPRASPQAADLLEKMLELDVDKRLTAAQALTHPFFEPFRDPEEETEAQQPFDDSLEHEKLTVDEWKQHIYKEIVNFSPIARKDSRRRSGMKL

In the case of `Cc1cccc(-c2nc(N(C)c3ccc4ncsc4c3)c3ccccc3n2)n1` [NK-161], the “KINOMEscan NLK” value [1] is reported as 0, the “KINOMEscan CSNK1G3” value [2] is reported as 0 and the “KINOMEscan CDK11B” value [3] is reported as 1. For the same molecule, the “KINOMEscan PIK3CA(M1043I)” value [4] was 10, the “KINOMEscan IKBKE/IKK-epsilon” value [5] was 0 and the “KINOMEscan MAPK13/p38-delta” value [6] was 6. The “KINOMEscan PLK1” value [7] was 4, the “KINOMEscan PRKACB” value [8] was 6 and the “KINOMEscan MST1R” value [9] was 2. For the same molecule, the “KINOMEscan SRPK1” value [10] was 7, the “KINOMEscan CSNK1G2” value [11] was 25 and the “KINOMEscan PLK4” value [12] was 3.
For `Cc1cccc(-c2nc(Nc3ccc4nn(C)cc4c3)c3ccccc3n2)n1` [NK167], the “KINOMEscan NLK” value [1] was 0, the “KINOMEscan CSNK1G3” value [2] was 0 and the “KINOMEscan CDK11B” value [3] was 10. For the same molecule, the “KINOMEscan PIK3CA(M1043I)” value [4] was 17, the “KINOMEscan IKBKE/IKK-epsilon” value [5] was 0 and the “KINOMEscan MAPK13/p38-delta” value [6] was 0. For the same molecule, the “KINOMEscan PLK1” value [7] was 0, the “KINOMEscan PRKACB” value [8] was 1 and the “KINOMEscan MST1R” value [9] was 0. The “KINOMEscan SRPK1” value [10] was 2, the “KINOMEscan CSNK1G2” value [11] was 12 and the “KINOMEscan PLK4” value [12] was 0.
